Key:
Assay in all cases: combination Emax (second highest fraction inhibited in the dose matrix, 72 h); higher = more inhibition; extreme values may be limits of the assay
[1] = tested on: Daoy (Other Solid Carcinomas)
In short: (§1)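 Cell lines in DMEM/F12 or RPMI with 10% FBS were plated in 1536-well plates, held 24 hours at 37°C, 5% CO2, then given two-drug dose matrices for 72 hours (DMSO typically 0.2%). Viability was read by CellTiter-Glo 2.0 luminescence and scaled as inhibition from 0 (vehicle wells) to 1 (blank wells). Combination Emax is the second-highest inhibition in the matrix; Bliss excess is observed combination effect minus expected EA + EB − EA·EB, EA and EB being single-agent effects.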

[2] = tested on: LNCaP-Clone-FGC (Prostate Carcinoma)
In short: as §1

[3] = tested on: CCRF-CEM (T-Lymphoblastic Leukemia)
In short: as §1

[4] = tested on: UM-UC-3 (Bladder Carcinoma)
In short: as §1

[5] = tested on: DoTc2-4510 (Cervical Carcinoma)
In short: as §1

[6] = tested on: EC-GI-10 (Esophageal Squamous Cell Carcinoma)
In short: as §1

[7] = tested on: HCC-78 (Lung Adenocarcinoma)
In short: as §1

[8] = tested on: NCI-H2085 (Non-Small Cell Lung Carcinoma)
In short: as §1

[9] = tested on: HT-1376 (Bladder Carcinoma)
In short: as §1

[10] = tested on: B-CPAP (Thyroid Gland Carcinoma)
In short: as §1

[11] = tested on: LS-180 (Colorectal Carcinoma)
In short: as §1

[12] = tested on: COLO-205 (Colorectal Carcinoma)
In short: as §1

[13] = tested on: SK-ES-1 (Ewing's Sarcoma)
In short: as §1

[14] = tested on: HCC1806 (Breast Carcinoma)
In short: as §1

[15] = tested on: Calu-3 (Lung Adenocarcinoma)
In short: as §1

[16] = tested on: HuP-T4 (Pancreatic Carcinoma)
In short: as §1

[17] = tested on: CaR-1 (Colorectal Carcinoma)
In short: as §1

[18] = tested on: RC-K8 (B-Cell Non-Hodgkin's Lymphoma)
In short: as §1

[19] = tested on: KELLY (Neuroblastoma)
In short: as §1

[20] = tested on: ME-1 (Acute Myeloid Leukemia)
In short: as §1

Compound: CC1(C)CCC(CN2CCN(c3ccc(C(=O)NS(=O)(=O)c4ccc(NCC5CCOCC5)c([N+](=O)[O-])c4)c(Oc4cnc5[nH]ccc5c4)c3)CC2)=C(c2ccc(Cl)cc2)C1 [Venetoclax] + C1CN(CCC1(C(=O)N[C@@H](CCO)C2=CC=C(C=C2)Cl)N)C3=NC=NC4=C3C=CN4 [Capivasertib] (first compound max 1 µM, 7x7, partner max 3 µM)
- combination Emax [1]: 0.21
- combination Emax [2]: 0.916
- combination Emax [3]: 0.957
- combination Emax [4]: 0.272
- combination Emax [5]: 0.245
- combination Emax [6]: 0.426
- combination Emax [7]: 0.276
- combination Emax [8]: 0.329
- combination Emax [9]: 0.11
- combination Emax [10]: 0.177
- combination Emax [11]: 0.287
- combination Emax [12]: 0.237
- combination Emax [13]: 0.469
- combination Emax [14]: 0.231
- combination Emax [15]: 0.174
- combination Emax [16]: 0.0995
- combination Emax [17]: 0.264
- combination Emax [18]: 0.333
- combination Emax [19]: 0.998
- combination Emax [20]: 1

Compound: CC1(C)CCC(CN2CCN(c3ccc(C(=O)NS(=O)(=O)c4ccc(NCC5CCOCC5)c([N+](=O)[O-])c4)c(Oc4cnc5[nH]ccc5c4)c3)CC2)=C(c2ccc(Cl)cc2)C1 [Venetoclax] + C=CCn1c(=O)c2cnc(Nc3ccc(N4CCN(C)CC4)cc3)nc2n1-c1cccc(C(C)(C)O)n1 [AZD1775] (first compound max 1 µM, partner max 1 µM)
- combination Emax [1]: 0.873
- combination Emax [2]: 0.689
- combination Emax [3]: 1
- combination Emax [4]: 0.294
- combination Emax [5]: 0.633
- combination Emax [6]: 0.903
- combination Emax [7]: 0.701
- combination Emax [8]: 0.398
- combination Emax [9]: 0.338
- combination Emax [10]: 0.502
- combination Emax [11]: 0.42
- combination Emax [12]: 0.606
- combination Emax [13]: 0.987
- combination Emax [14]: 0.912
- combination Emax [15]: 0.218
- combination Emax [16]: 0.378
- combination Emax [17]: 0.246
- combination Emax [18]: 0.815
- combination Emax [19]: 1
- combination Emax [20]: 1

Compound: CC1(C)CCC(CN2CCN(c3ccc(C(=O)NS(=O)(=O)c4ccc(NCC5CCOCC5)c([N+](=O)[O-])c4)c(Oc4cnc5[nH]ccc5c4)c3)CC2)=C(c2ccc(Cl)cc2)C1 [Venetoclax] + CCN(CCO)CCCOc1ccc2c(Nc3cc(CC(=O)Nc4cccc(F)c4)[nH]n3)ncnc2c1 [AZD2811] (first compound max 1 µM, 7x7, partner max 1 µM)
- combination Emax [1]: 0.439
- combination Emax [2]: 0.272
- combination Emax [3]: 1
- combination Emax [4]: 0.16
- combination Emax [5]: 0.235
- combination Emax [6]: 0.308
- combination Emax [7]: 0.225
- combination Emax [8]: 0.46
- combination Emax [9]: 0.183
- combination Emax [10]: 0.206
- combination Emax [11]: 0.244
- combination Emax [12]: 0.713
- combination Emax [13]: 1
- combination Emax [14]: 0.212
- combination Emax [15]: 0.175
- combination Emax [16]: 0.263
- combination Emax [17]: 0.282
- combination Emax [18]: 0.423
- combination Emax [19]: 0.985
- combination Emax [20]: 1

Compound: CC1(C)CCC(CN2CCN(c3ccc(C(=O)NS(=O)(=O)c4ccc(NCC5CCOCC5)c([N+](=O)[O-])c4)c(Oc4cnc5[nH]ccc5c4)c3)CC2)=C(c2ccc(Cl)cc2)C1 [Venetoclax] + CN(C)CCCOc1ccc(-c2ccc3ncc4c(c3c2)n(C2CCOCC2)c(=O)n4C)cn1 [AZD0156] (first compound max 1 µM, 7x7, partner max 1 µM)
- combination Emax [1]: 0.168
- combination Emax [2]: 0.35
- combination Emax [3]: 0.931
- combination Emax [4]: 0.252
- combination Emax [5]: 0.268
- combination Emax [6]: 0.221
- combination Emax [7]: 0.181
- combination Emax [8]: 0.186
- combination Emax [9]: 0.189
- combination Emax [10]: 0.28
- combination Emax [11]: 0.166
- combination Emax [12]: 0.237
- combination Emax [13]: 0.374
- combination Emax [14]: 0.139
- combination Emax [15]: 0.121
- combination Emax [16]: 0.144
- combination Emax [17]: 0.145
- combination Emax [18]: 0.316
- combination Emax [19]: 0.976
- combination Emax [20]: 1

Compound: CC1(C)CCC(CN2CCN(c3ccc(C(=O)NS(=O)(=O)c4ccc(NCC5CCOCC5)c([N+](=O)[O-])c4)c(Oc4cnc5[nH]ccc5c4)c3)CC2)=C(c2ccc(Cl)cc2)C1 [Venetoclax] + COc1cc(Nc2ncc3c(n2)-c2ccc(Cl)cc2C(c2c(F)cccc2OC)=NC3)ccc1C(=O)O [Alisertib] (first compound max 1 µM, 7x7, partner max 10 µM)
- combination Emax [1]: 0.932
- combination Emax [2]: 0.298
- combination Emax [3]: 0.992
- combination Emax [4]: 0.399
- combination Emax [5]: 0.421
- combination Emax [6]: 0.554
- combination Emax [7]: 0.475
- combination Emax [8]: 0.597
- combination Emax [9]: 0.246
- combination Emax [10]: 0.598
- combination Emax [11]: 0.489
- combination Emax [12]: 0.693
- combination Emax [13]: 1
- combination Emax [14]: 0.278
- combination Emax [15]: 0.171
- combination Emax [16]: 0.355
- combination Emax [17]: 0.401
- combination Emax [18]: 0.585
- combination Emax [19]: 0.998
- combination Emax [20]: 1

Compound: CC1(C)CCC(CN2CCN(c3ccc(C(=O)NS(=O)(=O)c4ccc(NCC5CCOCC5)c([N+](=O)[O-])c4)c(Oc4cnc5[nH]ccc5c4)c3)CC2)=C(c2ccc(Cl)cc2)C1 [Venetoclax] + C[C@@H]1COCCN1C2=NC(=NC(=C2)C3(CC3)[S@](=N)(=O)C)C4=C5C=CNC5=NC=C4 [AZD6738] (first compound max 1 µM, 7x7, partner max 10 µM)
- combination Emax [1]: 0.9
- combination Emax [2]: 0.684
- combination Emax [3]: 1
- combination Emax [4]: 0.538
- combination Emax [5]: 0.603
- combination Emax [6]: 0.608
- combination Emax [7]: 0.661
- combination Emax [8]: 0.534
- combination Emax [9]: 0.432
- combination Emax [10]: 0.631
- combination Emax [11]: 0.728
- combination Emax [12]: 0.344
- combination Emax [13]: 0.914
- combination Emax [14]: 0.938
- combination Emax [15]: 0.265
- combination Emax [16]: 0.394
- combination Emax [17]: 0.484
- combination Emax [18]: 0.837
- combination Emax [19]: 0.998
- combination Emax [20]: 1

Compound: CC1(C)CCC(CN2CCN(c3ccc(C(=O)NS(=O)(=O)c4ccc(NCC5CCOCC5)c([N+](=O)[O-])c4)c(Oc4cnc5[nH]ccc5c4)c3)CC2)=C(c2ccc(Cl)cc2)C1 [Venetoclax] + C[C@@H](Nc1cc(F)cc(F)c1)c1cc(C(=O)N(C)C)cc2c(=O)cc(N3CCOCC3)oc12 [AZD8186] (first compound max 1 µM, 7x7, partner max 3 µM)
- combination Emax [1]: 0.176
- combination Emax [2]: 0.809
- combination Emax [3]: 0.95
- combination Emax [4]: 0.164
- combination Emax [5]: 0.197
- combination Emax [6]: 0.131
- combination Emax [7]: 0.261
- combination Emax [8]: 0.354
- combination Emax [9]: 0.0567
- combination Emax [10]: 0.132
- combination Emax [11]: 0.184
- combination Emax [12]: 0.285
- combination Emax [13]: 0.64
- combination Emax [14]: 0.0952
- combination Emax [15]: 0.0911
- combination Emax [16]: 0.195
- combination Emax [17]: 0.109
- combination Emax [18]: 0.281
- combination Emax [19]: 1
- combination Emax [20]: 1

Compound: CC1(C)CCC(CN2CCN(c3ccc(C(=O)NS(=O)(=O)c4ccc(NCC5CCOCC5)c([N+](=O)[O-])c4)c(Oc4cnc5[nH]ccc5c4)c3)CC2)=C(c2ccc(Cl)cc2)C1 [Venetoclax] + Cc1cc2ncnn2cc1Nc1ncc2c(n1)n(C1CCOCC1)c(=O)n2C [AZD7648] (first compound max 1 µM, 7x7, partner max 10 µM)
- combination Emax [1]: 0.172
- combination Emax [2]: 0.423
- combination Emax [3]: 0.931
- combination Emax [4]: 0.139
- combination Emax [5]: 0.23
- combination Emax [6]: 0.436
- combination Emax [7]: 0.243
- combination Emax [8]: 0.143
- combination Emax [9]: 0.193
- combination Emax [10]: 0.281
- combination Emax [11]: 0.275
- combination Emax [12]: 0.213
- combination Emax [13]: 0.465
- combination Emax [14]: 0.172
- combination Emax [15]: 0.155
- combination Emax [16]: 0.202
- combination Emax [17]: 0.175
- combination Emax [18]: 0.496
- combination Emax [19]: 0.989
- combination Emax [20]: 1

Compound: CC1(C)CCC(CN2CCN(c3ccc(C(=O)NS(=O)(=O)c4ccc(NCC5CCOCC5)c([N+](=O)[O-])c4)c(Oc4cnc5[nH]ccc5c4)c3)CC2)=C(c2ccc(Cl)cc2)C1 [Venetoclax] + Cn1cnc2c(F)c(Nc3ccc(Br)cc3Cl)c(C(=O)NOCCO)cc21 [Selumetinib] (first compound max 1 µM, 7x7, partner max 3 µM)
- combination Emax [1]: 0.0883
- combination Emax [2]: 0.187
- combination Emax [3]: 0.926
- combination Emax [4]: 0.189
- combination Emax [5]: 0.268
- combination Emax [6]: 0.313
- combination Emax [7]: 0.167
- combination Emax [8]: 0.23
- combination Emax [9]: 0.163
- combination Emax [10]: 0.241
- combination Emax [11]: 0.476
- combination Emax [12]: 0.718
- combination Emax [13]: 0.285
- combination Emax [14]: 0.359
- combination Emax [15]: 0.071
- combination Emax [16]: 0.352
- combination Emax [17]: 0.103
- combination Emax [18]: 0.227
- combination Emax [19]: 1
- combination Emax [20]: 1
